Experimental data taken from patent publication US6548494B1, “Tricyclic inhibitors of poly(ADP-ribose) polymerases” (Agouron Pharmaceuticals, Inc., priority 1999, dated 2003).
Where “and” joins values, the source holds several entries; their conditions need not be identical. Identical values can stand only once. Like-named read-outs stand apart in the source and are kept apart here.

Legend:
[1] = target: purified PARP protein (Homo sapiens, UniProt P09874); assay: PARP enzyme inhibition assay; assay type: biochemical
purified PARP protein, sequence (P09874 whole entry): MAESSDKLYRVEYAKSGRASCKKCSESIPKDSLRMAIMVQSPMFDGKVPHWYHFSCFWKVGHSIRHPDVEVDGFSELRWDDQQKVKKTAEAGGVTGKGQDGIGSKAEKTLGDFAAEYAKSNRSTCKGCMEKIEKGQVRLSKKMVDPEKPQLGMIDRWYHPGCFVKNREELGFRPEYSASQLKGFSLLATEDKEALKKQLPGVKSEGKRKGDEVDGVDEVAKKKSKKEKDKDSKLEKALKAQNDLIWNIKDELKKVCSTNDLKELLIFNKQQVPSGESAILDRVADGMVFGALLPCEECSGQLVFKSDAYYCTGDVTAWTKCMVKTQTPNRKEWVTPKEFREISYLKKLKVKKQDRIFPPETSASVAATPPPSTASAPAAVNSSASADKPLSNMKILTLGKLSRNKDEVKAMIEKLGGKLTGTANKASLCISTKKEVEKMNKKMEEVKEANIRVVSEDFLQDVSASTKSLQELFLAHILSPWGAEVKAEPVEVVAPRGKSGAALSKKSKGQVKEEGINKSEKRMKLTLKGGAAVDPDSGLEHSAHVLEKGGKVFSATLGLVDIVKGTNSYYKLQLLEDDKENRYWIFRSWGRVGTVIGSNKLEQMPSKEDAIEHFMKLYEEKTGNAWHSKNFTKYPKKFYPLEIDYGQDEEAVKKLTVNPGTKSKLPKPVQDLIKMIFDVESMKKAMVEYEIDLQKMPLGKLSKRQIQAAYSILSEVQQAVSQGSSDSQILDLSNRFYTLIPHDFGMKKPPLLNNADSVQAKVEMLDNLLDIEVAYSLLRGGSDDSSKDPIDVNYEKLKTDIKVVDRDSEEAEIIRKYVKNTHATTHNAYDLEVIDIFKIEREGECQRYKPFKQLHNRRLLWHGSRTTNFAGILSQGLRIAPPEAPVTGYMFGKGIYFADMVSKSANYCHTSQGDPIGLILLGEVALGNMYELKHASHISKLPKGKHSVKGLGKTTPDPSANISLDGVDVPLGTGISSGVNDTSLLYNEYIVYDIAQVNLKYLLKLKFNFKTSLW

[2] = system: A549 cells; assay: Cytotoxicity potentiation assay; assay type: cell-based; conditions: test compound 0.4 μM, ratio of IC50 of topotecan alone to IC50 of topotecan with test compound
Protocol: A549 cells (ATCC, Rockville, Md.) were seeded into 96-well cell culture plates (Falcon brand, Fisher Scientific, Pittsburgh, Pa.) 16 to 24 hours before experimental manipulation. Cells were then treated with a test compound (or a combination of test compounds where indicated) each at a concentration of 0.4 μM for either 3 days or 5 days. At the end of treatments, relative cell number was determined either by MTT assay or SRB assay. For the MTT assay, 0.2 μg/μl of MTT (3-(4,5-dimethylthiazol-2-yl)-2,5-diphenyltetrazolium bromide) (Sigma Chemical Co., St. Louis, Mo.) was added to each well of a plate, and the plate was incubated in a cell-culture incubator for 4 hours. Metabolized MTT in each well was solubilized in 150 μl of DMSO (Sigma Chemical Co.) with shaking and quantified with a Wallac 1420 Victor plate reader (EG&G Wallac, Gaithersburg, Md.) at 540 nm. For the SRB assay, cells were fixed with 10% trichloroacetic acid (Sigma Chemical Co) for an hour at 4° C. After extensively washing, fixed cells were stained for 30 minutes with 0.4% sulforhodamine B (SRB, Sigma Chemical Co.) in 1% acetic acid (Sigma Chemical Co). Unbound SRB was washed away with 1% acetic acid. Then the cultures were air-dried, and dye was solubilized with 10 mM unbuffered Tris base (Sigma Chemical Co) with shaking. The bound dye was measured photometrically with the Wallac Victor plate reader at 515 nm. The ratio of the OD (optical density) value of a compound-treated culture to the OD value of a mock-treated culture, expressed in percentage, was used to quantify the cytotoxicity of a compound. […] To quantify the potentiation of the cytotoxicity of topotecan or temozolomide by test compounds, a dimensionless parameter PF50 is used and is defined as the ratio of the IC50 of topotecan or temozolomide alone to the IC50 of topotecan or temozolomide in combination with a test compound. For the compounds of the invention, PF50 values were determined by testing with topotecan.

[3] = 20 nM purified PARP (5 nM for tight-binding inhibitors), 500 μM NAD+, 25° C., several values in one cell = repeat determinations, read-out: Inhibition Constant Ki

Structure (SMILES)	Ki [1, 3]	Cytotoxicity Potentiation PF50 [2]	melting point	Ki ([1]; Inhibition Constant Ki (nM))
CC1C=CC(C)N1Cc1ccc(-c2nc3cccc4c3n2CCNC4=O)cc1 (racemic) [Example 243, 1-[4-(2,5-Dimethyl-2,5-dihydro-pyrrol-1-ylmethyl)-phenyl]-8,9-dihydro-7H-2,7,9a-triaza-benzo[cd]azulen-6-one]	8.9 nM	2.0	–	–
O=C1NCCn2c(-c3ccccc3)nc3cccc1c32 [Example 1, 1-Phenyl-8,9-dihydro-7H-2,7,9a-triaza-benzo[cd]azulen-6-one]	–	1.5	–	–
O=C1NCCn2c(-c3ccc(F)cc3)nc3cccc1c32 [Example 2, 1-(4-Fluoro-phenyl)-8,9-dihydro-7H-2,7,9a-triaza-benzo[cd]azulen-6-one]	8 nM and 6 nM	1.6	–	–
O=C1NCCn2c(-c3cccnc3)nc3cccc1c32 [Example 7, 1-Pyridin-3-yl-8,9-dihydro-7H-2,7,9a-triaza-benzo[cd]azulen-6-one]	5.1 nM	1.4	–	–
O=C1NCCn2c(-c3cccc4ccccc34)nc3cccc1c32 [Example 9, 1-Naphthalen-1-yl-8,9-dihydro-7H-2,7,9a-triaza-benzo[cd]azulen-6-one]	–	1.4	–	–
O=C1NCCn2c(-c3ccc4ccccc4c3)nc3cccc1c32 [Example 11, 1-Naphthalen-2-yl-8,9-dihydro-7H-2,7,9a-triaza-benzo[cd]azulen-6-one]	5.6 nM	2.1	–	–
O=C1NCCn2c(O)nc3cccc1c32 [Example 26, 8,9-Dihydro-2H 7H-2,7,9a-triaza-benzo[cd]azulen-1,6-dione]	102 nM	1.1	–	–
O=C1NCCn2c(-c3ccc(F)cc3)cc3cccc1c32 [Example 37]	–	1.8	–	–
O=C1NCCn2c(-c3ccc(Cl)cc3)c(/C=N/O)c3cccc1c32 [Example 39, 6-(4-Chloro-phenyl)-1-oxo-1,2,3,4-tetrahydro-[1,4]diazepino[6,7,1-hi]indole-7-carboxaldehyde Oxime]	–	1	–	–
O=C1NCCn2cc(/C=N/O)c3cccc1c32 [Example 46, 1-Oxo-1,2,3,4-tetrahydro-[1,4]diazepino[6,7]-hi]indole-7-carbaldehyde Oxime]	–	1.3	–	–
Cc1c(-c2ccc(F)cc2)n2c3c(cccc13)C(=O)NCC2 [Example 50, 6-(4-Fluoro-phenyl)-7-methyl-3,4-dihydro-2H-[1,4]diazepino[6,7,1-hi]indol-1-one]	–	1.1	–	–
CN(C)Cc1ccc(-c2nc3cccc4c3n2CCNC4=O)cc1 [Example 58, 1-(4-Dimethylaminomethyl-phenyl)-8,9-dihydro-7H-2,7,9a-triaza-benzo[cd]azulen-6-one]	5.8 nM	2.0	–	–
CN(C)Cc1ccc(-c2cc3cccc4c3n2CCNC4=O)cc1 [Example 82, 6-(4-Dimethylaminomethyl-phenyl)-3,4-dihydro-2H-[1,4]diazepino[6,7,1-hi]indol-1-one]	6.2 nM and 6.6 nM	1.9	–	–
O=C1NCCn2c(-c3ccc(F)cc3)c(/C=N/O)c3cccc1c32 [Example 90, 6-(4-Fluoro-phenyl)-1-oxo-1,2,3,4-tetrahydro-[1,4]diazepino[6,7,1-hi]indole-7-carbaldehyde oxime]	–	1.2	–	–
O=C1NCCn2c(-c3ccc(-c4c[nH]cn4)cc3)nc3cccc1c32 [Example 147, 1-[4-(1H-Imidazol-4-yl)-phenyl]-8,9-dihydro-7H-2,7,9a-triaza-benzo[cd]azulen-6-one]	4 nM	–	> 198 °C (dec.)	–
CC(C)N1CCCCC1c1ccc(-c2nc3cccc4c3n2CCNC4=O)cc1 (stereo not drawn) [Example 151]	6.9 nM	–	> 260 °C (dec.)	–
O=C1NCCn2c(-c3ccc(-c4ncc[nH]4)cc3)nc3cccc1c32 [Example 152, 1-[4-(1H-Imidazol-2-yl)-phenyl]-8,9-dihydro-7H-2,7,9a-triaza-benzo[cd]azulen-6-one]	3.2 nM	–	> 325 °C	–
NC(=S)c1c(-c2ccc(F)cc2)n2c3c(cccc13)C(=O)NCC2 [Example 153, 6-(4-Fluoro-phenyl)-1-oxo-1,2,3,4-tetrahydro-[1,4]diazepino[6,7,1-hi]indole-7-carbothioic Acid Amide]	219 nM	–	238 to 240 °C	–
N/C(=N\O)c1c(-c2ccc(F)cc2)n2c3c(cccc13)C(=O)NCC2 [Example 155, 6-(4-Fluoro-phenyl)-N-hydroxy-1-oxo-1,2,3,4-tetrahydro-[1,4]diazepino[6,7,1-hi]indole-7-carboxmidine]	87 nM	–	257 to 259 °C	–
CC(O)c1c(-c2ccc(F)cc2)n2c3c(cccc13)C(=O)NCC2 (stereo not drawn) [Example 157, 6-(4-Fluoro-phenyl)-7-(1-hydroxy-ethyl)-3,4-dihydro-2H-[1,4]diazepino[6,7,1-hi]indol-1-one]	540 nM	–	220 to 222 °C	–
O=C1NCCn2c(-c3ccc(F)cc3)c(-c3ccn[nH]3)c3cccc1c32 [Example 160, 6-(4-Fluoro-phenyl)-7-(2H-pyrazol-3-yl)-3,4-dihydro-2H-[1,4]diazepino[6,7,1-hi]indol-1-one]	–	–	173 to 175 °C	249 nM
COC(=O)CCCc1cc2cccc3c2n1CCNC3=O [Example 161]	116 nM	–	175 to 176 °C	–
CC(O)c1cn2c3c(cccc13)C(=O)NCC2 (stereo not drawn) [Example 163, 7-(1-Hydroxy-ethyl)-3,4-dihydro-2H-[1,4]diazepino[6,7,1-hi]indol-1-one]	692 nM	–	295 to 297 °C	–
CC(=O)c1cn2c3c(cccc13)C(=O)NCC2 [Example 164, 7-Acetyl-3,4-dihydro-2H-[1,4]diazepino[6,7,1-hi]indol-1-one]	606 nM	–	285 to 287 °C	–
O=C1NCCn2cc(C(O)c3ccccc3)c3cccc1c32 (stereo not drawn) [Example 166, 7-(1-Hydroxy-1-phenyl-methyl)-3,4-dihydro-2H-[1,4]diazepino[6,7,1-hi]indol-1-one]	–	–	178 to 180 °C	380 nM
O=C(c1ccccc1)c1cn2c3c(cccc13)C(=O)NCC2 [Example 167, 7-(1-Benzoyl)-3,4-dihydro-2H-[1,4]diazepino[6,7,1-hi]indol-1-one]	337 nM	–	229 to 230 °C	–
O=C1NCCn2cc(/C(=N/O)c3ccccc3)c3cccc1c32 [Example 168, 7-(1-Hydroxyimino-1-phenyl-methyl)-3,4-dihydro-2H-[1,4]diazepino[6,7,1-hi]indol-1-one]	–	–	263 to 265 °C	38 nM
O=C1NCCn2c(-c3ccc(CN4CC=CC4)cc3)nc3cccc1c32 [Example 171, 1-[4-(2,5-Dihydro-pyrrol-1-ylmethyl)-phenyl]-8,9-dihydro-7H-2,7,9a-triaza-benzo[cd]azulen-6-one]	4.5 nM	2.5	–	–
C[C@H]1Cn2c(-c3ccc(Cl)cc3)nc3cccc(c32)C(=O)N1 [Example 235, (S)-1-(4-Chloro-phenyl)-8-methyl-8,9-dihydro-7H-2,7,9a-triaza-benzo[cd]azulen-6-one]	5.4 nM	–	244 to 246 °C	–
